The text below walks through data of ChEMBL document CHEMBL1201862, “PubChem BioAssay data set” (2004).

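Method: 48-hour compound exposure of cells in 96-well plates, five concentrations, linear interpolation of endpoints. GI50: concentration for 50% inhibition of growth.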 Calls of active or inactive are those of the source. Rule as the data show it: active = GI50 up to about 1.1 µM and inactive = higher.

Holding throughout (assay): DTP human tumour cell line panel, 48 h
For assay [1], the system named is A549.
Assay [2] concerns CAKI-1.
Assay [3] deals with EKVX.
The subject of assay [4] is HL-60.
Assay [5] concerns HOP-92.
In assay [6] the test system is HT-29.
For assay [7], the system named is KM-20L2.
In assay [8] the test system is KM12.
Assay [9] relates to MOLT-4.
The subject of assay [10] is Malme-3M.
For assay [11], the system named is NCI-H23.
Assay [12] concerns SF-539.
The subject of assay [13] is SK-MEL-28.
In assay [14] the test system is SK-MEL-2.
Assay [15] relates to SN12C.
Assay [16] relates to SNB-75.
The test system of assay [17] is SR.
The subject of assay [18] is MDA-MB-231.
Assay [19] has as its system MDA-N.
Assay [20] deals with T47D.

Regarding `CC1(C)COC(c2cccnc2/C=N/O)=N1`, the GI50 in assay [1], in assay [2], in [3], in assay [4], in assay [5] and in assay [6] was > 100 µM (inactive) each time. The GI50 in assay [7], in assay [8], in assay [9], in assay [10], in [11] and in assay [12] was > 100 µM (inactive) each time. The GI50 in assay [13], in [14], in assay [15], in assay [16] and in assay [17] was > 100 µM (inactive) in each case.

For the compound `Cc1c2cc[n+](CCN3CCCCC3)cc2c(C)c2c1[nH]c1ccc(O)cc12`, the GI50 is 1.35 µM (inactive) in assay [1]; 5.48 µM (inactive) in [2]; 3.92 µM (inactive) in assay [3]; 1.69 µM (inactive) in assay [4]; 5.11 µM (inactive) in [5]; 8 µM (inactive) in assay [6]. Also, the GI50 in assay [7] was 6.43 µM (inactive); in [8], 1.64 µM (inactive); in assay [18], 9.93 µM (inactive); in assay [19], 12.1 µM (inactive); in assay [10], 2.39 µM (inactive); in [11] it was 5.46 µM (inactive). The GI50 was 3.45 µM (inactive) in [12]; 6.1 µM (inactive) in [13]; 11.9 µM (inactive) in assay [14]; 0.401 µM (active) in assay [15]; 0.647 µM (active) in [16]; 0.0723 µM (active) in [17]. For the same compound, the GI50 in assay [20] is 2.82 µM (inactive).

With `N#CC1CC(c2ccccc2)Nc2cc(Cl)ccc2N1` (stereo not drawn), the GI50 in [1] was 37.6 µM (inactive); in assay [2], 34.8 µM (inactive); in assay [3], > 79.6 µM (inactive); in assay [4], 4.1 µM (inactive); in assay [5], 26.7 µM (inactive); in assay [6] it was 24.4 µM (inactive). For the same compound, the GI50 in [7] is 43.7 µM (inactive); in assay [8], 34.8 µM (inactive); in assay [9], 10.9 µM (inactive); in [10] it was 24 µM (inactive); in assay [11], 31.6 µM (inactive); in [12] it was 38.3 µM (inactive). Moreover, the GI50 in assay [13] is > 93.8 µM (inactive); in assay [14], 29.1 µM (inactive); in assay [15], 63.1 µM (inactive); in assay [16], 36.5 µM (inactive); in assay [17] it was 14.3 µM (inactive).

For the compound `NN1C(=O)C(CCO)S/C1=N/N=C1/SC(CCO)C(=O)N1N` (stereo not drawn), the GI50 in assay [1], in [2], in assay [3], in [4], in [5] and in [6] was > 100 µM (inactive) in each case. In addition, the GI50 in assay [7], in assay [8], in assay [9], in assay [10], in assay [11] and in assay [12] was > 100 µM (inactive) in each case. The GI50 in assay [13], in assay [14], in assay [15], in assay [16] and in assay [17] was > 100 µM (inactive) in each case.

For the compound `O=C(O)[C@@H]1OCCOCCO[C@@H](C(=O)O)[C@H](C(=O)O)OCCOCCO[C@H]1C(=O)O`, the GI50 in assay [1] is > 100 µM (inactive); in [2], > 100 µM (inactive); in [3], > 100 µM (inactive); in assay [4], 14.3 µM (inactive); in assay [5] it was > 100 µM (inactive); in [6] it was > 100 µM (inactive). Moreover, the GI50 is > 100 µM (inactive) in assay [7]; > 100 µM (inactive) in assay [8]; > 64.3 µM (inactive) in [9]; > 100 µM (inactive) in [10]; > 100 µM (inactive) in [11]; > 100 µM (inactive) in assay [12]. The GI50 in assay [13] was > 100 µM (inactive); in assay [14] it was > 100 µM (inactive); in assay [15] it was > 100 µM (inactive); in assay [16] it was 97.9 µM (inactive); in [17] it was 19.1 µM (inactive).

Consider `CN(Cc1cnc2nc(N)nc(N)c2n1)c1ccc(C(=O)NC(CCC(=O)O)C(=O)O)c2ccccc12` (stereo not drawn), for which the concentration for 50% growth inhibition (GI50) in [1] was 0.00286 µM (active); in assay [2] it was 0.00489 µM (active); in assay [3], < 0.1 µM (active); in [4], 0.000435 µM (active); in assay [6], 0.00168 µM (active); in [7], 0.01 µM (active). Also, the GI50 is 0.00256 µM (active) in assay [8]; < 0.1 µM (active) in assay [18]; 0.000834 µM (active) in assay [19]; 0.00545 µM (active) in assay [9]; 0.0356 µM (active) in [10]; 0.00773 µM (active) in assay [11]. For the same compound, the GI50 in assay [12] is 0.00577 µM (active); in assay [13], 0.0805 µM (active); in [14], < 0.1 µM (active); in [15], 0.00697 µM (active); in [16], 0.0693 µM (active); in [17], 0.0025 µM (active). Further, the GI50 in [20] was 0.204 µM (active).

Consider `O=c1cccccc1NCCCCCCCCCNc1cccccc1=O`, for which the GI50 is 9.66 µM (inactive) in assay [1]; 13.3 µM (inactive) in assay [2]; 4.56 µM (inactive) in assay [3]; 4.06 µM (inactive) in assay [4]; 18.7 µM (inactive) in assay [5]; 15.7 µM (inactive) in [6]. The GI50 in assay [7] was 19.6 µM (inactive); in assay [8] it was 16.1 µM (inactive); in assay [9], 5.75 µM (inactive); in assay [10] it was 7.52 µM (inactive); in [11], 5.26 µM (inactive); in [12] it was 6.68 µM (inactive). Further, the GI50 in assay [14] was 19 µM (inactive); in assay [15], 21 µM (inactive); in assay [16], 17.9 µM (inactive); in [17], 8.43 µM (inactive).

On to `Oc1ccc2ccccc2c1/N=N/c1ccc(F)cc1`, for which the GI50 in assay [1], in [2], in assay [4], in assay [5], in [6] and in assay [7] was > 100 µM (inactive) in each case. In addition, the GI50 in assay [8] is 72.4 µM (inactive); in [9], > 100 µM (inactive); in assay [10], > 100 µM (inactive); in assay [11] it was > 100 µM (inactive); in assay [12], > 100 µM (inactive); in assay [13], > 100 µM (inactive). Moreover, the GI50 in assay [14] is > 100 µM (inactive); in [15] it was 42.7 µM (inactive); in [16] it was > 100 µM (inactive); in [17] it was > 100 µM (inactive).
